SMILES strings stand for the structures.

The record followed here is US20250241923A1, “A DUAL SELECTIVE PI3K DELTA AND GAMMA INHIBITORS AND/OR A SALT-INDUCIBLE KINASE 3 INHIBITOR FOR TREATING SOLID TUMORS” (Incozen Therapeutics Pvt. Ltd, priority 2022, published 2025).

Series [1] in a line: Metabolic stability in liver microsomes, rat. It counts as in vitro ADME. The source says: (§1) In in vitro studies using liver microsomes, the metabolic stability of tenalisib followed the rank order of rat>human>dog>monkey>mouse (Table 3).
(In general: Liver microsomes are vesicles of endoplasmic reticulum, rich in cytochrome P450 enzymes.)

For series [2], the system named is SK-OV-3 ovarian cancer cell line. In words: Anti-proliferative effect of taxol and Compound (M) (Example 10), SK-OV-3. It counts as cell-based.
Series [3] in a line: Metabolic stability in liver microsomes, human. It counts as in vitro ADME.
From the text: as §1

The nature of series [4]: Metabolic stability in liver microsomes, dog. It counts as in vitro ADME.
From the text: as §1

For the next series, the target named is SIK3 (Homo sapiens, UniProt Q9Y2K2). The series can be described thus: SIK3 inhibition assay (enzymatic radiometric). It counts as biochemical. The settings on record: 10 μM ATP.
Chain of SIK3 (Q9Y2K2 whole entry): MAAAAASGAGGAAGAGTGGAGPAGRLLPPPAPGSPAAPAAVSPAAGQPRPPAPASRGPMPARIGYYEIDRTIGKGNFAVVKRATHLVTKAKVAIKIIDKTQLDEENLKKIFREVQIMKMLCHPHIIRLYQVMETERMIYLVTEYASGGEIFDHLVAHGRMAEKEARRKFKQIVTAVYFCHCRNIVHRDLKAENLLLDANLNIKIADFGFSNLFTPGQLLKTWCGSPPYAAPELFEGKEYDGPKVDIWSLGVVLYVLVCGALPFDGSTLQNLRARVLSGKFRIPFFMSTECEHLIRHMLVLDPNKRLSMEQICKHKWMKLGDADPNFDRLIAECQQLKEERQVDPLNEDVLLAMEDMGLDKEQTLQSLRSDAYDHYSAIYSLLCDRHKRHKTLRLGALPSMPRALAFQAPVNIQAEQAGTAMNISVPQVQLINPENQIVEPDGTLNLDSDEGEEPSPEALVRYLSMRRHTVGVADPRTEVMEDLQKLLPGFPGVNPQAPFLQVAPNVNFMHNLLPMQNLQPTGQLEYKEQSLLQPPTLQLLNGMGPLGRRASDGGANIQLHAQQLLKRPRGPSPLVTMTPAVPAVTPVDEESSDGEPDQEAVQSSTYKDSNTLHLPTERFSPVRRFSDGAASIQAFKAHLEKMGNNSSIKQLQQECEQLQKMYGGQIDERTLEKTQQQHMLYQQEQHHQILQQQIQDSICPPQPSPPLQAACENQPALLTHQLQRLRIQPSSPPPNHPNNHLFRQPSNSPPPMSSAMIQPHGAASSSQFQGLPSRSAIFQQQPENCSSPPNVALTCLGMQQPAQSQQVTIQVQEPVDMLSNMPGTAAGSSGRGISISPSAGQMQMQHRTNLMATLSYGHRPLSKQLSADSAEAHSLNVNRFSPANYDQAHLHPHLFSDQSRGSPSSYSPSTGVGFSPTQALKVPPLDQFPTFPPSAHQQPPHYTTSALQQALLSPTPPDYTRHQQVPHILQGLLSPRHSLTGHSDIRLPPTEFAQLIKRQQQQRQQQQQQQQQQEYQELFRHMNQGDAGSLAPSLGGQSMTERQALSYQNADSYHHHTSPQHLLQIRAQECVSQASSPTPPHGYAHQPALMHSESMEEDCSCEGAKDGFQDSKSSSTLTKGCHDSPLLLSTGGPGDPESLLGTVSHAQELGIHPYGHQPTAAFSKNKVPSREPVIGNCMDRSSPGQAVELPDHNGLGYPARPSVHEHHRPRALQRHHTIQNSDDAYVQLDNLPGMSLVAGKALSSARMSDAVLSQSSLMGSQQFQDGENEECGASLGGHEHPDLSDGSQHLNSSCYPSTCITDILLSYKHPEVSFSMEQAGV
For series [5], the system named is MCF-7 breast cancer cell lines. The series can be described thus: cells. The settings on record: Homo sapiens, MCF7, 72 h, read-out: growth inhibition.
The test system of series [6] is OVCAR-3 ovarian cancer cell lines. The series can be described thus: Anti-proliferative activity with PARP inhibitors, OVCAR-3. It counts as cell-based. The settings on record: Homo sapiens, read-out: growth inhibition.
The test system of another series is MCF-7 cell lines. The series can be described thus: Cell proliferation (MTT), Compound M and olaparib, MCF-7. In kind it is cell-based. The settings on record: Homo sapiens, MCF7, olaparib alone (5 μM, FIG. 5), 72 h, read-out: growth inhibition.
For series [7], the system named is MDA-MB-231 breast cancer cell line. The series can be described thus: Anti-proliferative effect of taxol (Example 10), MDA-MB-231. In kind it is cell-based. The settings on record: taxol alone (Example 10).
The test system of series [8] is MCF-7 breast cancer cell line. In words: Anti-proliferative effect of taxol (Example 10), MCF-7. In kind it is cell-based. The settings on record: taxol alone (Example 10).
Series [9] relates to MDA-MB-231 breast cancer cell lines. In words: cells. The settings on record: Homo sapiens, MDA-MB-231, 72 h, read-out: growth inhibition.
The subject of series [10] is ZR.75.1 breast cancer cell line. The series can be described thus: Anti-proliferative effect of taxol (Example 10), ZR.75.1. In kind it is cell-based. The settings on record: taxol alone (Example 10).
In series [11] the test system is SK-OV-3 ovarian cancer cell lines. The series can be described thus: Anti-proliferative activity with PARP inhibitors, SK-OV-3. It counts as cell-based. As to conditions: Homo sapiens, single agent talazoparib (3 μM, FIG. 6B), read-out: growth inhibition.

Protocol for MCF-7 cell lines: • MCF-7 cells were plated in MEM+10% FBS complete media at pre-determined density in a 96-well plate. • Cells were exposed to either DMSO (control) alone, Compound M alone, olaparib alone, or a combination of Compound M and olaparib. • Cells were incubated for 72 h in presence of the inhibitors. • MTT reaction was performed to determine the cell viability at the end of the treatment period and absorbance was measured at wavelength 560 and 640 nM. • % cell growth inhibitions were calculated, and Tukey's analysis was performed using GraphPad Prism to compare the treated groups.

For orientation: IC50 means the concentration needed to halve the response being measured. The low end stands for inhibition by little substance, the high end for a need for much substance. For `CC[C@H](Nc1ncnc2[nH]c(O)nc12)c1oc2ccccc2c(=O)c1-c1cccc(F)c1` [Compound M, (S)-3-(3-fluorophenyl)-2-(1-((8-hydroxy-9H-purin-6-yl)amino)propyl)-4H-chromen-4-one], the “% Metabolic Stability” value in [1] turned out to be 58.0%; in series [3], 58.5%; in series [4], 67.6%. In addition, the “potentiation of the activity of taxol” value in series [2] (Compound (M) 3 μM added to taxol (6 nM, FIG. 7)) is “potentiated”. At SIK3, this compound had a 50% inhibitory concentration (IC50) of 237 nM. At SIK3, the “selectivity over the SIK1 and SIK2 isoforms” value is on record as “Selective over”.

One may read the inhibition as how much of the control response was suppressed. In the case of `COc1cccc2c1C(=O)c1c(O)c3c(c(O)c1C2=O)C[C@@](O)(C(=O)CO)C[C@@H]3O[C@H]1C[C@H](N)[C@H](O)[C@H](C)O1` [Doxorubicin], the inhibition at 0.05 µM in series [5] came out at 42.8%.

As for `O=C(c1cc(Cc2n[nH]c(=O)c3ccccc23)ccc1F)N1CCN(C(=O)C2CC2)CC1` [Olaparib], the inhibition at 3 µM in series [6] (olaparib alone (3 μM, FIG. 6C)) came out at 29.3%. The inhibition at 5 µM in the series with MCF-7 cell lines was found to be 43.2%.

As for `CC(=O)O[C@H]1C(=O)[C@@]2(C)[C@H]([C@H](OC(=O)c3ccccc3)[C@]3(O)C[C@H](OC(=O)[C@H](O)[C@@H](NC(=O)c4ccccc4)c4ccccc4)C(C)=C1C3(C)C)[C@]1(OC(C)=O)CO[C@@H]1C[C@@H]2O` [Taxol], the growth inhibition in series [7] was 44.4%; in [8] it was 17.3%; in series [10], 25.8%. For the same compound, in series [2] (Homo sapiens, taxol alone (6 nM, FIG. 7), read-out: growth inhibition), the inhibition at 0.006 µM is 59.2%. Also, the inhibition at 0.003 µM in series [9] stood at 34.5%; in series [5] it was 28.8%.

For the compound `Cn1ncnc1[C@H]1c2n[nH]c(=O)c3cc(F)cc(c23)N[C@@H]1c1ccc(F)cc1` [talazoparib], in [6] (single agent talazoparib (0.1 μM, FIG. 6A)), the inhibition at 0.1 µM is 40.2%. For the same compound, in series [11], the inhibition at 3 µM turned out to be 50%.
